These results are taken from patent US11952364B2, “TRK inhibitors useful as anticancer drugs” (TYLIGAND BIOSCIENCE (SHANGHAI) LIMITED, priority 2018, dated 2024).

As usually defined, the inhibition is the relative decrease from the control value, in per cent. Low readings indicate a weak effect, high ones a strong effect. As a reminder, the IC50 is the concentration that gives 50% inhibition.

Molecules are shown by their SMILES.

One data set deals with BLK (Homo sapiens (Human), UniProt P51451). Briefly: KINOMEscan competition binding assay. Here is the method:
(§1) The experiment was performed according to the standard kinase activity determination protocol by Eurofins DiscoverX Corporation (11180 Roselle St. Suite D, San Diego, CA, USA, www.discoverX.com). Specifically, the experiment was conducted using the KINOMEscan™ screening platform, which adopts an active site-directed competition binding assay to quantitatively measure the interaction between test compounds and more than hundreds of human kinases and disease-related mutants. The working principle of the screening platform and kinase assay methods are well known in the art, for example, see www.discoverX.com.

For the next data set, the target named is CDK11 (Homo sapiens (Human), UniProt Q9BWU1). Description: KINOMEscan competition binding assay. Here is the method: as §1
A further data set has as its target CSF1R (Homo sapiens (Human), UniProt P07333). Description: KINOMEscan competition binding assay. Here is the method: as §1
The target of a further data set is EPHA8 (Homo sapiens (Human), UniProt P29322). Description: KINOMEscan competition binding assay. Here is the method: as §1
In another data set the target is FLT3 (Homo sapiens (Human), UniProt P36888). Briefly: KINOMEscan competition binding assay. Here is the method: as §1
The target in another data set is FLT3(D835V) (Homo sapiens (Human), UniProt P36888, D835V). Description: KINOMEscan competition binding assay. Here is the method: as §1
The target of the next data set is KIT(V559D, T670I) (Homo sapiens (Human), UniProt P10721, T670I/V559D). Description: KINOMEscan competition binding assay. Here is the method: as §1
The target in a further data set is MKNK1 (Homo sapiens (Human), UniProt Q9BUB5). Description: KINOMEscan competition binding assay. Here is the method:
as §1

The target in the next data set is MST1R (Homo sapiens (Human), UniProt Q04912). Description: KINOMEscan competition binding assay. Here is the method:
as §1

For a further data set, the target named is RAF1 (Homo sapiens (Human), UniProt P04049). Briefly: KINOMEscan competition binding assay. Here is the method:
as §1

In another data set the target is RET (Homo sapiens (Human), UniProt P07949). Briefly: KINOMEscan competition binding assay. Here is the method:
as §1

The target in a further data set is TIE2 (Homo sapiens (Human), UniProt Q02763). Description: KINOMEscan competition binding assay. Here is the method: as §1
The next data set has as its target TRKC (Homo sapiens (Human), UniProt Q16288). Description: KINOMEscan competition binding assay. Here is the method:
as §1

In data set [1] the target is kinases listed in Table 10. Briefly: KINOMEscan kinase panel (kinase profile). It is filed as binding, human. Here is the method: as §1
The experiment was performed according to the standard kinase activity determination protocol by Eurofins DiscoverX Corporation (11180 Roselle St. Suite D, San Diego, CA USA, www.discoverX.com).

Another data set addresses P450 1A2 (Homo sapiens (Human), UniProt P05177). Description: Cytochrome P450 inhibition in human liver microsomes. It is filed as in vitro ADME. An excerpt:
(§2) According to the standard methods conventional in the art for cytochrome P450 enzyme system study, for example those described in Kerns, Edward H. and Di Li (2008). Drug-like Properties: Concepts. Structure Design and Methods: from ADME to Toxicity Optimization. San Diego: Academic Press; Lin, Tong et al., In Vitro Assessment of Cytochrome P450 Inhibition: Strategies for Increasing LC/MS-Based Assay Throughput Using a One-Point IC50 Method and Multiplexing High-Performance Liquid Chromatography; J. Pharm. Sci. 2007, 96(9), 2485.), the inhibitory effect of the compounds of the present disclosure on the cytochrome P450 enzyme system was investigated analogously as follows. The test compounds were evaluated by detecting the metabolism of human liver microsomes for the substrates of different subtypes of Cyp450. The liver microsomes (Sekisui XenoTech, LLC., human liver microsomes, cat. #H0610) were slowly melted on ice, and 0.482 mL of the liver microsome solution (20 mg/mL) was added to 30 mL of 100 mM potassium phosphate solution to prepare a liver microsome working solution with a concentration of 0.316 mg/mL. The test compound and specific inhibitors of different Cyp450 subtypes (as a control) were prepared into 10 mM DMSO solutions, and then 20 μL of the 10 mM DMSO compound solution was added to 180 μL of acetonitrile to obtain a 1 mM compound solution. 2 μL of such 1 mM test compound or inhibitor solution was added to 150 μL of 0.316 mg/mL liver microsome working solution to obtain a 13.16 μM compound working solution. 45.3 mg of NADPH (SIGMA, cat. #V900362) was weighted and added into 13.59 mL of deionized water to prepare a 4 mM NADPH aqueous solution. 0.2 mL of 2 mg/mL internal standard stock solution (dexamethasone in acetonitrile) was added to 1000 mL of acetonitrile (SIGMA, cat. #271004) to prepare a reaction stop solution and stored at 4° C. 150 μL 0.316 mg/mL human liver microsome working solution was added to each well of a 96-well deep plate, and 2 μL of 1 mM specific inhibitor or test compound solution was added to the corresponding wells, and then added to each well 50 μL preheated working solution of each substrate (in 4 mM NADPH solution). After incubating for 5-40 minutes respectively (different enzymes have different incubation times), 200 μL of pre-cooled reaction stop solution was added. All samples were centrifuged at 4000 rpm for 20 minutes. 150 μL of the centrifugal supernatant was then added to a new 96-well deep plate, and added to each well 150 μL of 0.1% formic acid aqueous solution, for analysis by LC/MS/MS (SCI AP4000). The single point IC50 values were calculated according to the following formula. [formula] • (Assuming Hill slope=1) • C0=concentration of test compound and inhibitor solution
A general note: Liver microsomes are vesicles of endoplasmic reticulum, rich in cytochrome P450 enzymes.

In a further data set the target is P450 2C19 (Homo sapiens (Human), UniProt P33261). The data set is described as above. The format is in vitro ADME.
From the text: as §2

The target of the next data set is P450 2C9 (Homo sapiens (Human), UniProt P11712). The description is as above. The format is in vitro ADME.
From the text: as §2

Another data set deals with P450 2D6 (Homo sapiens (Human), UniProt P10635). Described as above. The format is in vitro ADME.
From the text: as §2

In a further data set the target is P450 3A4 (Homo sapiens (Human), UniProt P08684). The data set is described as above. It is filed as in vitro ADME.
Data set [2] has as its system TRK Fusion-Positive Cancers. The conditions noted are these: cited from earlier work.

Sequence of P450 2C9 (P11712 whole entry): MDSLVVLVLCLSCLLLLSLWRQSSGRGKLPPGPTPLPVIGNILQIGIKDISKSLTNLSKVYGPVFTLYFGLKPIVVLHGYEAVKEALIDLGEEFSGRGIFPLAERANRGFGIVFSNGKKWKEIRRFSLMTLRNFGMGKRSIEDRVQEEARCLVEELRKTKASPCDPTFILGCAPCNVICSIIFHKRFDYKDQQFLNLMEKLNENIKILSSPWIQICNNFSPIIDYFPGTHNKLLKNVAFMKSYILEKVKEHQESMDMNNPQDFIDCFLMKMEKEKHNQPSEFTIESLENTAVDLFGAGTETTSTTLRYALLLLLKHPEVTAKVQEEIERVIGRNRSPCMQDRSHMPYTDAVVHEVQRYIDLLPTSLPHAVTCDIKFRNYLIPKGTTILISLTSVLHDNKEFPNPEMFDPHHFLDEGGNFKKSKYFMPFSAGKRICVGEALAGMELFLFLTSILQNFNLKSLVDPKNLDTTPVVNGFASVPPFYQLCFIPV
Sequence of P450 2D6 (P10635 whole entry): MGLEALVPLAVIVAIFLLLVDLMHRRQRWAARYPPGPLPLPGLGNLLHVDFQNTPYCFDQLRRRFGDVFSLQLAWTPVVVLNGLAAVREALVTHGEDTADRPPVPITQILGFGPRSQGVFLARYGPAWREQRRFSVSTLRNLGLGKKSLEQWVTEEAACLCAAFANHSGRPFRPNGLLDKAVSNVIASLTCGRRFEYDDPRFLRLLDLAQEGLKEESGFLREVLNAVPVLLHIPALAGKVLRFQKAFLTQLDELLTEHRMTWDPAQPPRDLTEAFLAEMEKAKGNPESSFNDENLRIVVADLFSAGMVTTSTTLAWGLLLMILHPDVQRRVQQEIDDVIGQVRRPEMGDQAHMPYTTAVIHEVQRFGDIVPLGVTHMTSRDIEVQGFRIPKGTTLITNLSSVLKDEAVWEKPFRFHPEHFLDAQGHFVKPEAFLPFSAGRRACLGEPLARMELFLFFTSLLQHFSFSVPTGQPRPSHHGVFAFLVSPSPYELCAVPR
Sequence of P450 1A2 (P05177 whole entry): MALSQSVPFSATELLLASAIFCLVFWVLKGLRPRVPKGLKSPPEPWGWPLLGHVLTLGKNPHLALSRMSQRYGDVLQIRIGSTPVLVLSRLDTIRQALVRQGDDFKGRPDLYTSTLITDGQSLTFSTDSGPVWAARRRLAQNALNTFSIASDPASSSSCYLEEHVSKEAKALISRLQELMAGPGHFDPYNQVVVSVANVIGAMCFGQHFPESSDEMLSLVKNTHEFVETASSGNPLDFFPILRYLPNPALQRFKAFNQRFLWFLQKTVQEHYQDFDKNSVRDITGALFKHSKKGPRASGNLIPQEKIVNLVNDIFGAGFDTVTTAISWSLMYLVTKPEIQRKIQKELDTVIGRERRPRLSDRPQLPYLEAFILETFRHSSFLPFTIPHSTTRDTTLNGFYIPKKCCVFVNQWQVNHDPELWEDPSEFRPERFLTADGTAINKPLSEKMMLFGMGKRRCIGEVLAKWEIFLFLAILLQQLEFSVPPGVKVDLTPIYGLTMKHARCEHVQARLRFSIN
Sequence of P450 2C19 (P33261 whole entry): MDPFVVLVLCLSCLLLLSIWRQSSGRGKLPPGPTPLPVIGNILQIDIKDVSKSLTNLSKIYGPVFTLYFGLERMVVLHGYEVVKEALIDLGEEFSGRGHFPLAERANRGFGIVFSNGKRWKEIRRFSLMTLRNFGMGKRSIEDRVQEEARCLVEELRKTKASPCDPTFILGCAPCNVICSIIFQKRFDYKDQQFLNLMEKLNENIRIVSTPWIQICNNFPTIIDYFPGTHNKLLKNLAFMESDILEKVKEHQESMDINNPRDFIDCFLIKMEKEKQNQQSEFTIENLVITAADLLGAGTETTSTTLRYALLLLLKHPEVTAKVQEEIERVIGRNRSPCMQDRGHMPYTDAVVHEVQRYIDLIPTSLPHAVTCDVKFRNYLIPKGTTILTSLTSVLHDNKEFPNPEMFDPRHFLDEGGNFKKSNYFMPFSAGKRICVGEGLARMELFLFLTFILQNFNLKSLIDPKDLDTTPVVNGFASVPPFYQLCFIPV
Sequence of TRKC (Q16288 32-839): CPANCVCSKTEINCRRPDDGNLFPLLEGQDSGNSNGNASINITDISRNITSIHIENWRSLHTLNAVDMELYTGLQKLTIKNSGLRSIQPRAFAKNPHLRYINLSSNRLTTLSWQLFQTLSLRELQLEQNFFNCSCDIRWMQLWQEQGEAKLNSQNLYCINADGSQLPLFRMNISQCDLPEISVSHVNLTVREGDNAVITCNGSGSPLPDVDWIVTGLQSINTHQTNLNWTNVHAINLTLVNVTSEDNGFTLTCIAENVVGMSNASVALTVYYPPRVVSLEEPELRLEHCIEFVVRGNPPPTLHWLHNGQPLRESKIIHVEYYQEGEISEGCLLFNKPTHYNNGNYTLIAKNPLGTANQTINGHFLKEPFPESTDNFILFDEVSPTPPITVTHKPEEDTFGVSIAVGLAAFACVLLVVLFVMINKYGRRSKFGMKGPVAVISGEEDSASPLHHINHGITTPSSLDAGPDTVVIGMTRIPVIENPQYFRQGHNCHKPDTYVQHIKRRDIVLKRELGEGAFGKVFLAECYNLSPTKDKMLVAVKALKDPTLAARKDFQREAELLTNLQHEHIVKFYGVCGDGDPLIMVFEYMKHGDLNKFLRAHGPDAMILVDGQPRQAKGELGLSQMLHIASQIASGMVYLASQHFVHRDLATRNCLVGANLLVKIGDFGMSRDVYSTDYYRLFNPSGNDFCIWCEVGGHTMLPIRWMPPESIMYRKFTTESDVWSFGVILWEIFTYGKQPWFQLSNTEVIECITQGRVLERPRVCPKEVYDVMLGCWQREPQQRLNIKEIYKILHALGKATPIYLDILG
Sequence of RAF1 (P04049 whole entry): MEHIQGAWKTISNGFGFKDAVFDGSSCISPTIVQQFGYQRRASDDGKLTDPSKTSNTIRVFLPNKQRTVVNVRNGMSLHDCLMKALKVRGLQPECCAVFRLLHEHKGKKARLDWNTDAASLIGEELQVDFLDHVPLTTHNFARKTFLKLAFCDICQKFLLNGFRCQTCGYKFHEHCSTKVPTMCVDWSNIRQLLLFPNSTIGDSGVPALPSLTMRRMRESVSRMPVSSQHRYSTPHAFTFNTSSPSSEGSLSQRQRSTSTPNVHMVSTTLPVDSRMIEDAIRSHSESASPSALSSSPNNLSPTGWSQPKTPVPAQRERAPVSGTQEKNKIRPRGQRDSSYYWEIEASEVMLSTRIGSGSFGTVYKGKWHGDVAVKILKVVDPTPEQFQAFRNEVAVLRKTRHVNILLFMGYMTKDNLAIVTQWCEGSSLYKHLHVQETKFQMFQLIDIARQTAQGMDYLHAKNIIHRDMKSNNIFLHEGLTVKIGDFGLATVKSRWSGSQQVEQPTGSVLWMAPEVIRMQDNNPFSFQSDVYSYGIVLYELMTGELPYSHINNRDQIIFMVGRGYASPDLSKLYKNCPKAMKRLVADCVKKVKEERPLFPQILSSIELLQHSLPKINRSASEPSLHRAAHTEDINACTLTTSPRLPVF
Sequence of MST1R (Q04912 25-1400): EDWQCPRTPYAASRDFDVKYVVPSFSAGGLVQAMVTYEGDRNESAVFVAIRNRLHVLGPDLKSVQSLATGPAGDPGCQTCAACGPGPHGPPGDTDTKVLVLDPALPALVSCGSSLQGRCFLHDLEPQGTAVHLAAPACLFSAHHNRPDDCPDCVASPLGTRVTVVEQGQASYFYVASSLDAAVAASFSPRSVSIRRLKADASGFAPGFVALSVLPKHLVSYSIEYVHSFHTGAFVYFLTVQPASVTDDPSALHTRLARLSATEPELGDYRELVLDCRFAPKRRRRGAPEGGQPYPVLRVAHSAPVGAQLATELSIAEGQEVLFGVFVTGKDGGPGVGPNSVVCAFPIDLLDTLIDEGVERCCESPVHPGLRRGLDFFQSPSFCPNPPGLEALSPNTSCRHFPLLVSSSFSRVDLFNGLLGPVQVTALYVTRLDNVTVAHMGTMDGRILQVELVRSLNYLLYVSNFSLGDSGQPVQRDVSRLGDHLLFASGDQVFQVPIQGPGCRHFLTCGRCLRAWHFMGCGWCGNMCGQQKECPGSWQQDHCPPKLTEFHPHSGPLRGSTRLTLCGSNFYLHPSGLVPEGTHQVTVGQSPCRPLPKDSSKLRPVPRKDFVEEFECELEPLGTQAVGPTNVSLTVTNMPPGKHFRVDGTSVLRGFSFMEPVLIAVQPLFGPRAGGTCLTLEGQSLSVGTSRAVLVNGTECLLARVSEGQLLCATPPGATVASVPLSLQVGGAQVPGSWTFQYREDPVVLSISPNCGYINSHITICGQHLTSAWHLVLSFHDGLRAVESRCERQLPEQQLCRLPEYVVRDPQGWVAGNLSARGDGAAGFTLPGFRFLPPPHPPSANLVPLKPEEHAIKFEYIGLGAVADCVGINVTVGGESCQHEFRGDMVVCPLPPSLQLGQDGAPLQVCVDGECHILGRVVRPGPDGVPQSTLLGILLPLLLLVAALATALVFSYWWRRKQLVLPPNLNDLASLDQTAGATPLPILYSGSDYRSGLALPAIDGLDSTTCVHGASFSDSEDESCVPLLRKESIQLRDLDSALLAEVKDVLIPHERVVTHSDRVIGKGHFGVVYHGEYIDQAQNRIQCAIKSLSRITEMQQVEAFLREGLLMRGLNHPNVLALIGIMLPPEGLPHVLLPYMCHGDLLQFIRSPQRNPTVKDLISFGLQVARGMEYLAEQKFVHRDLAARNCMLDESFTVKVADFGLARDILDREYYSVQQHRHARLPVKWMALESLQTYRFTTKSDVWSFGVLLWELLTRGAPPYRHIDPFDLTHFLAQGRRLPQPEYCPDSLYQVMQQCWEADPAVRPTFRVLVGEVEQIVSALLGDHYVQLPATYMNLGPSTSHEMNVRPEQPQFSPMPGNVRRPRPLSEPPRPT
Experimental for P450 3A4: The test compounds were evaluated by detecting the metabolism of human liver microsomes for the substrates of different subtypes of Cyp450. The liver microsomes (Sekisui XenoTech, LLC., human liver microsomes, cat. #H0610) were slowly melted on ice, and 0.482 mL of the liver microsome solution (20 mg/mL) was added to 30 mL of 100 mM potassium phosphate solution to prepare a liver microsome working solution with a concentration of 0.316 mg/mL. The test compound and specific inhibitors of different Cyp450 subtypes (as a control) were prepared into 10 mM DMSO solutions, and then 20 μL of the 10 mM DMSO compound solution was added to 180 μL of acetonitrile to obtain a 1 mM compound solution. 2 μL of such 1 mM test compound or inhibitor solution was added to 150 μL of 0.316 mg/mL liver microsome working solution to obtain a 13.16 μM compound working solution. 45.3 mg of NADPH (SIGMA, cat. #V900362) was weighted and added into 13.59 mL of deionized water to prepare a 4 mM NADPH aqueous solution. 0.2 mL of 2 mg/mL internal standard stock solution (dexamethasone in acetonitrile) was added to 1000 mL of acetonitrile (SIGMA, cat. #271004) to prepare a reaction stop solution and stored at 4° C. […] The single point IC50 values were calculated according to the following formula. […]

With `COc1ccc(C(=O)Nc2ccc(Oc3cc4cnn(C)c4cc3-c3cn[nH]c3)c(F)c2)c(=O)n1-c1ccc(F)cc1` [Example 12, N-(3-fluoro-4-(1-methyl-6-(1H-pyrazol-4-yl)-1H-indazol-5-yloxy)phenyl)-1-(4-fluorophenyl)-6-methoxy-2-oxo-1,2-dihydropyridine-3-carboxamide], the inhibition at 2 µM at BLK stood at 95%; on CDK11 it was 100%; at CSF1R it was 100%; at EPHA8, 96%; on FLT3 it was 99%; at FLT3(D835V), 93%. Moreover, the inhibition at 2 µM stood at 99% at KIT(V559D, T670I); 95% at MKNK1; 98% at MST1R; 92% at RAF1; 97% at RET; 99% on TIE2. Also, on TRKC, testing at 2 µM gave an inhibition of 97%. For the same compound, the “kinase activity profile compared with Merestinib” value in data set [1] (2 μM, FIG. 2, kinases with a difference of inhibition rate >20%) is “significantly different trend in the kinase activity profile”. Besides, the “inhibitory activity on the kinases listed in Table 10” value in data set [1] (concentration of 2 μM) is recorded as > 90%. Further, the IC50 is > 10 µM at P450 1A2; > 10 µM against P450 2C19; 9.8 µM at P450 2C9; > 10 µM against P450 2D6; > 10 µM at P450 3A4. Also, the “inhibitory activity on 2C9 compared with Merestinib” value on P450 2C9 (statement in words) is recorded as “significantly lower than that of the prior inhibitor Merestinib”.
`O=C(Nc1cnn2ccc(N3CCC[C@@H]3c3cc(F)ccc3F)nc12)N1CC[C@H](O)C1` [LOXO-101, Larotrectinib, reference compound]: in [2] (after 1 year of treatment), the “patients had no disease progression” value is on record as 55% and the “patients still responded to treatment” value is 71%. In addition, the “overall patient response rate (ORR)” value in data set [2] (patients, more than ten tumor types) was 75%. Further, in data set [2] (patients), the complete response was 13% and the partial response is listed as 62%.
For `Cc1ccc(C(=O)Nc2ccc(Oc3cc4cnn(C)c4cc3-c3cn[nH]c3)c(F)c2)c(=O)n1-c1ccc(F)cc1` [Merestinib, reference compound], the half-inhibitory concentration (IC50) is > 10 µM against P450 1A2, > 10 µM on P450 2C19, 4.2 µM on P450 2C9 and > 10 µM against P450 2D6.
